Laboratory results taken from PubChem BioAssay AID248 (DTP/NCI, 2004).
“And” between values parts separate entries of the source, which are not always exact repeats. Equal values may be shown once. Inconclusive results and toxic doses are left out. Cut-off read from the data, not from the text of the source: active = T/C of 150% or more; inactive = T/C below 125%.

Test system: L1210 leukemia ip in BDF1 mice, survival T/C
Assay: NCI In Vivo Anticancer Drug Screen. Data for tumor model L1210 Leukemia (intraperitoneal) in B6D2F1 (BDF1) mice
Conditions: endpoint: mean survival time, higher = longer survival
Summary of the method: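 Tumor cells were implanted, animals were treated, and survival was followed. The result divides the treated measurement by the vehicle-control measurement.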

[1] = dose: 100.0 mg/kg/injection, schedule: Q04DX003 (ip), vehicle: Klucel (hydroxypropylcellulose) (HPC)
[2] = dose: 200.0 mg/kg/injection, schedule: Q04DX003 (ip), vehicle: Klucel (hydroxypropylcellulose) (HPC)
[3] = dose: 400.0 mg/kg/injection, schedule: Q04DX003 (ip), vehicle: Klucel (hydroxypropylcellulose) (HPC)
[4] = dose: 100.0 mg/kg/injection, schedule: Q01DX001 (ip), vehicle: saline with Tween-80
[5] = dose: 37.5 mg/kg/injection, schedule: Q01DX009 (ip), vehicle: saline
[6] = dose: 75.0 mg/kg/injection, schedule: Q01DX009 (ip), vehicle: saline
[7] = dose: 50.0 mg/kg/injection, schedule: Q01DX001 (ip), vehicle: carboxymethylcellulose (CMC)
[8] = dose: 100.0 mg/kg/injection, schedule: Q01DX001 (ip), vehicle: carboxymethylcellulose (CMC)
[9] = dose: 100.0 mg/kg/injection, schedule: Q01DX001 (ip), vehicle: saline
[10] = dose: 200.0 mg/kg/injection, schedule: Q01DX001 (ip), vehicle: saline
[11] = dose: 400.0 mg/kg/injection, schedule: Q01DX001 (ip), vehicle: saline

Measured: T/C

CC(=O)Nc1ccc(/C=N\NC(=O)C2CC2)cc1
inactive: [1] 100 % of control | [2] 87 % of control | [3] 87 % of control

C#CC(O)(/C=C\Cl)CC (centres undefined)
inactive: dose: 12.5 mg/kg/injection, schedule: Q01DX009 (ip), vehicle: saline 102 % of control | dose: 25.0 mg/kg/injection, schedule: Q01DX009 (ip), vehicle: saline 93 % of control | dose: 25.0 mg/kg/injection, schedule: Q04DX003 (ip), vehicle: saline 101 % of control | dose: 50.0 mg/kg/injection, schedule: Q01DX009 (ip), vehicle: saline 94 % of control | dose: 50.0 mg/kg/injection, schedule: Q04DX003 (ip), vehicle: saline 95 % of control | dose: 100.0 mg/kg/injection, schedule: Q01DX009 (ip), vehicle: saline 86 % of control | dose: 100.0 mg/kg/injection, schedule: Q04DX003 (ip), vehicle: saline 97 % of control | dose: 200.0 mg/kg/injection, schedule: Q04DX003 (ip), vehicle: saline 106 % of control

CSc1ccccc1N=Cc1cc(Cl)ccc1O
inactive: [4] 90 % of control

CCCc1ccc(OC/C=C(\C)CCC2OC2(C)CC)cc1 (centres undefined)
inactive: dose: 100.0 mg/kg/injection, schedule: Q04DX002 (ip), vehicle: saline with Tween-80 92 % of control | dose: 200.0 mg/kg/injection, schedule: Q04DX002 (ip), vehicle: saline with Tween-80 99 % of control | dose: 400.0 mg/kg/injection, schedule: Q04DX002 (ip), vehicle: saline with Tween-80 92 % of control

NCC1CCCC1N (centres undefined)
inactive: dose: 18.8 mg/kg/injection, schedule: Q01DX009 (ip), vehicle: saline 102 % of control | [5] 102 % of control | [6] 97 % of control

CC(=O)N(c1ccccc1)c1ccc(-c2ccc(N(C(C)=O)c3ccccc3)cc2)cc1
inactive: dose: 50.0 mg/kg/injection, schedule: Q01DX001 (ip), vehicle: other 100 % of control | dose: 100.0 mg/kg/injection, schedule: Q01DX001 (ip), vehicle: other 105 % of control | dose: 200.0 mg/kg/injection, schedule: Q01DX001 (ip), vehicle: other 100 % of control | dose: 400.0 mg/kg/injection, schedule: Q01DX001 (ip), vehicle: other 89 % of control

C=CC12COC(=O)C(=C)C1C1OC(=O)C(=C)C1C(O)C2 (centres undefined)
inactive: dose: 2.5 mg/kg/injection, schedule: Q01DX009 (ip), vehicle: saline + alcohol 102 % of control | dose: 4.0 mg/kg/injection, schedule: Q01DX009 (ip), vehicle: saline 104 % of control | dose: 4.0 mg/kg/injection, schedule: Q01DX009 (ip), vehicle: water 103 % of control | dose: 5.0 mg/kg/injection, schedule: Q01DX009 (ip), vehicle: saline + alcohol 110 % of control | dose: 6.0 mg/kg/injection, schedule: Q01DX009 (ip), vehicle: saline 113 % of control | dose: 8.0 mg/kg/injection, schedule: Q01DX009 (ip), vehicle: saline 124 % of control | dose: 8.0 mg/kg/injection, schedule: Q01DX009 (ip), vehicle: water 118 % of control | dose: 10.0 mg/kg/injection, schedule: Q01DX009 (ip), vehicle: saline 111 % of control

CC1C(C(=O)O)CC([N+](=O)[O-])C(Cl)C1[N+](=O)[O-] (centres undefined)
inactive: dose: 25.0 mg/kg/injection, schedule: Q01DX001 (ip), vehicle: carboxymethylcellulose (CMC) 92 % of control | dose: 25.0 mg/kg/injection, schedule: Q04DX003 (ip), vehicle: carboxymethylcellulose (CMC) 95 % of control | [7] 97 % of control | dose: 50.0 mg/kg/injection, schedule: Q01DX009 (ip), vehicle: carboxymethylcellulose (CMC) 95 % of control and 102 % of control | dose: 50.0 mg/kg/injection, schedule: Q04DX003 (ip), vehicle: carboxymethylcellulose (CMC) 98 % of control | [8] 102 % of control | dose: 100.0 mg/kg/injection, schedule: Q01DX009 (ip), vehicle: carboxymethylcellulose (CMC) 90 % of control | dose: 100.0 mg/kg/injection, schedule: Q04DX002 (ip), vehicle: carboxymethylcellulose (CMC) 101 % of control and 91 % of control | dose: 100.0 mg/kg/injection, schedule: Q04DX003 (ip), vehicle: carboxymethylcellulose (CMC) 102 % of control | dose: 200.0 mg/kg/injection, schedule: Q04DX002 (ip), vehicle: carboxymethylcellulose (CMC) 92 % of control and 105 % of control

Cc1c2[n+](cc3ccccc13)C(C)CC(=O)N2 (centres undefined)
inactive: dose: 18.75 mg/kg/injection, schedule: Q01DX009 (ip), vehicle: saline 95 % of control | [5] 95 % of control | dose: 37.5 mg/kg/injection, schedule: Q04DX003 (ip), vehicle: saline 97 % of control | dose: 75.0 mg/kg/injection, schedule: Q01DX001 (ip), vehicle: saline 100 % of control | [6] 94 % of control | dose: 75.0 mg/kg/injection, schedule: Q04DX003 (ip), vehicle: saline 101 % of control | dose: 150.0 mg/kg/injection, schedule: Q01DX001 (ip), vehicle: saline 94 % of control | dose: 150.0 mg/kg/injection, schedule: Q04DX003 (ip), vehicle: saline 104 % of control

CCCCCC1(C=O)C(=O)NC(=O)N1C (centres undefined)
inactive: [9] 102 % of control | [10] 93 % of control | [11] 87 % of control

c1cc[n+](CCSCCSCC[n+]2ccccc2)cc1
inactive: dose: 3.12 mg/kg/injection, schedule: Q01DX009 (ip), vehicle: acetone 97 % of control | dose: 3.12 mg/kg/injection, schedule: Q04DX003 (ip), vehicle: saline 106 % of control | dose: 6.25 mg/kg/injection, schedule: Q01DX009 (ip), vehicle: acetone 95 % of control | dose: 6.25 mg/kg/injection, schedule: Q04DX003 (ip), vehicle: saline 101 % of control | dose: 12.5 mg/kg/injection, schedule: Q01DX001 (ip), vehicle: saline 105 % of control | dose: 12.5 mg/kg/injection, schedule: Q04DX003 (ip), vehicle: saline 97 % of control

CC(C)=CCCC(C)C1CCC2C3CC=C4CC(O)CCC4(C)C3CCC12C (centres undefined)
inactive: [4] 91 % of control | dose: 200.0 mg/kg/injection, schedule: Q01DX001 (ip), vehicle: saline with Tween-80 95 % of control | dose: 400.0 mg/kg/injection, schedule: Q01DX001 (ip), vehicle: saline with Tween-80 95 % of control

C/C(=N/N(C)C)c1ccccc1
inactive: dose: 100.0 mg/kg/injection, schedule: Q04DX002 (ip), vehicle: saline 97 % of control | [1] 112 % of control | dose: 200.0 mg/kg/injection, schedule: Q04DX002 (ip), vehicle: saline 108 % of control | [2] 95 % of control | dose: 400.0 mg/kg/injection, schedule: Q04DX002 (ip), vehicle: saline 108 % of control | [3] 90 % of control

COc1cc2nc3occc3c(OC)c2c2c1OC(C(C)(C)O)C2 (centres undefined)
inactive: [7] 98 % of control | [8] 117 % of control | dose: 200.0 mg/kg/injection, schedule: Q01DX001 (ip), vehicle: carboxymethylcellulose (CMC) 93 % of control

O=[N+]([O-])c1cccc(P(=O)(O)O)c1
inactive: dose: 50.0 mg/kg/injection, schedule: Q01DX001 (ip), vehicle: saline 115 % of control | [9] 107 % of control | [10] 97 % of control | [11] 103 % of control

O=C(NC1CCCCC1)c1ccc(C(=O)NC2CCCCC2)cc1
inactive: dose: 100.0 mg/kg/injection, schedule: Q04DX002 (ip), vehicle: Klucel (hydroxypropylcellulose) (HPC) 94 % of control | dose: 200.0 mg/kg/injection, schedule: Q04DX002 (ip), vehicle: Klucel (hydroxypropylcellulose) (HPC) 102 % of control | dose: 400.0 mg/kg/injection, schedule: Q04DX002 (ip), vehicle: Klucel (hydroxypropylcellulose) (HPC) 91 % of control

Nc1[nH]c(=O)[nH]c(=O)c1N=Nc1ccc(S(=O)(=O)Nc2ccccn2)cc1
inactive: [9] 98 % of control | [10] 96 % of control | [11] 104 % of control
